Experimental data taken from the CheMixHub viscosity set.
± gives the uncertainty stated by the source.

Experiment: xn = mol fraction of the nth substance listed

`CN(C)c1ccccc1` + CC(=O)CC(C)C showed a viscosity (303.15 K, 101 kPa, x1 = 0.0745) of 0.632 ± 0.025 mPa·s, a viscosity (303.15 K, 101 kPa, x1 = 0.1256) of 0.711 ± 0.028 mPa·s and a viscosity (303.15 K, 101 kPa, x1 = 0.1856) of 0.8 ± 0.031 mPa·s. It also gave a viscosity (303.15 K, 101 kPa, x1 = 0.2652) of 0.906 ± 0.034 mPa·s, a viscosity (303.15 K, 101 kPa, x1 = 0.3202) of 0.971 ± 0.036 mPa·s and a viscosity (303.15 K, 101 kPa, x1 = 0.4012) of 1.052 ± 0.039 mPa·s. It also gave a viscosity (303.15 K, 101 kPa, x1 = 0.4852) of 1.108 ± 0.041 mPa·s, a viscosity (303.15 K, 101 kPa, x1 = 0.5612) of 1.143 ± 0.042 mPa·s and a viscosity (303.15 K, 101 kPa, x1 = 0.6504) of 1.165 ± 0.042 mPa·s. For the same molecule, the viscosity (303.15 K, 101 kPa, x1 = 0.7214) was 1.167 ± 0.042 mPa·s, the viscosity (303.15 K, 101 kPa, x1 = 0.7958) was 1.168 ± 0.042 mPa·s and the viscosity (303.15 K, 101 kPa, x1 = 0.8625) was 1.169 ± 0.042 mPa·s. For the same molecule, the viscosity (303.15 K, 101 kPa, x1 = 0.9125) was 1.17 ± 0.043 mPa·s, the viscosity (308.15 K, 101 kPa, x1 = 0.0745) was 0.557 ± 0.023 mPa·s and the viscosity (308.15 K, 101 kPa, x1 = 0.1256) was 0.628 ± 0.025 mPa·s. It also gave a viscosity (308.15 K, 101 kPa, x1 = 0.1856) of 0.711 ± 0.028 mPa·s, a viscosity (308.15 K, 101 kPa, x1 = 0.2652) of 0.813 ± 0.031 mPa·s and a viscosity (308.15 K, 101 kPa, x1 = 0.3202) of 0.875 ± 0.033 mPa·s. It also gave a viscosity (308.15 K, 101 kPa, x1 = 0.4012) of 0.953 ± 0.036 mPa·s, a viscosity (308.15 K, 101 kPa, x1 = 0.4852) of 1.013 ± 0.038 mPa·s and a viscosity (308.15 K, 101 kPa, x1 = 0.5612) of 1.049 ± 0.039 mPa·s. It also gave a viscosity (308.15 K, 101 kPa, x1 = 0.6504) of 1.072 ± 0.039 mPa·s, a viscosity (308.15 K, 101 kPa, x1 = 0.7214) of 1.079 ± 0.04 mPa·s and a viscosity (308.15 K, 101 kPa, x1 = 0.7958) of 1.079 ± 0.04 mPa·s. The viscosity (308.15 K, 101 kPa, x1 = 0.8625) was 1.081 ± 0.04 mPa·s and the viscosity (308.15 K, 101 kPa, x1 = 0.9125) was 1.086 ± 0.04 mPa·s.
Work on `CN(C)c1ccccc1` + CCCCOCCO yielded a viscosity (298 K, 101.3 kPa, x2 = 0.0991) of 1.298 ± 0.035 mPa·s, a viscosity (298 K, 101.3 kPa, x2 = 0.2007) of 1.369 ± 0.037 mPa·s and a viscosity (298 K, 101.3 kPa, x2 = 0.3163) of 1.479 ± 0.04 mPa·s. It also gave a viscosity (298 K, 101.3 kPa, x2 = 0.3988) of 1.586 ± 0.042 mPa·s, a viscosity (298 K, 101.3 kPa, x2 = 0.4955) of 1.715 ± 0.046 mPa·s and a viscosity (298 K, 101.3 kPa, x2 = 0.5977) of 1.88 ± 0.05 mPa·s. For the same molecule, the viscosity (298 K, 101.3 kPa, x2 = 0.6989) was 2.076 ± 0.055 mPa·s, the viscosity (298 K, 101.3 kPa, x2 = 0.7971) was 2.281 ± 0.06 mPa·s and the viscosity (298 K, 101.3 kPa, x2 = 0.8968) was 2.555 ± 0.067 mPa·s. For the same molecule, the viscosity (303 K, 101.3 kPa, x2 = 0.0991) was 1.184 ± 0.032 mPa·s, the viscosity (303 K, 101.3 kPa, x2 = 0.2007) was 1.245 ± 0.034 mPa·s and the viscosity (303 K, 101.3 kPa, x2 = 0.3163) was 1.338 ± 0.036 mPa·s. The viscosity (303 K, 101.3 kPa, x2 = 0.3988) was 1.42 ± 0.038 mPa·s, the viscosity (303 K, 101.3 kPa, x2 = 0.4955) was 1.524 ± 0.041 mPa·s and the viscosity (303 K, 101.3 kPa, x2 = 0.5977) was 1.666 ± 0.044 mPa·s. It also gave a viscosity (303 K, 101.3 kPa, x2 = 0.6989) of 1.825 ± 0.048 mPa·s, a viscosity (303 K, 101.3 kPa, x2 = 0.7971) of 2.002 ± 0.053 mPa·s and a viscosity (303 K, 101.3 kPa, x2 = 0.8968) of 2.23 ± 0.059 mPa·s. The viscosity (308 K, 101.3 kPa, x2 = 0.0991) was 1.096 ± 0.03 mPa·s, the viscosity (308 K, 101.3 kPa, x2 = 0.2007) was 1.14 ± 0.031 mPa·s and the viscosity (308 K, 101.3 kPa, x2 = 0.3163) was 1.221 ± 0.033 mPa·s. The viscosity (308 K, 101.3 kPa, x2 = 0.3988) was 1.291 ± 0.035 mPa·s, the viscosity (308 K, 101.3 kPa, x2 = 0.4955) was 1.384 ± 0.037 mPa·s and the viscosity (308 K, 101.3 kPa, x2 = 0.5977) was 1.501 ± 0.04 mPa·s. For the same molecule, the viscosity (308 K, 101.3 kPa, x2 = 0.6989) was 1.643 ± 0.044 mPa·s, the viscosity (308 K, 101.3 kPa, x2 = 0.7971) was 1.79 ± 0.047 mPa·s and the viscosity (308 K, 101.3 kPa, x2 = 0.8968) was 1.991 ± 0.053 mPa·s. The viscosity (313 K, 101.3 kPa, x2 = 0.0991) was 1.022 ± 0.028 mPa·s, the viscosity (313 K, 101.3 kPa, x2 = 0.2007) was 1.063 ± 0.029 mPa·s and the viscosity (313 K, 101.3 kPa, x2 = 0.3163) was 1.129 ± 0.031 mPa·s. It also gave a viscosity (313 K, 101.3 kPa, x2 = 0.3988) of 1.186 ± 0.032 mPa·s, a viscosity (313 K, 101.3 kPa, x2 = 0.4955) of 1.266 ± 0.034 mPa·s and a viscosity (313 K, 101.3 kPa, x2 = 0.5977) of 1.369 ± 0.037 mPa·s. The viscosity (313 K, 101.3 kPa, x2 = 0.6989) was 1.486 ± 0.04 mPa·s, the viscosity (313 K, 101.3 kPa, x2 = 0.7971) was 1.617 ± 0.043 mPa·s and the viscosity (313 K, 101.3 kPa, x2 = 0.8968) was 1.781 ± 0.047 mPa·s. The viscosity (318 K, 101.3 kPa, x2 = 0.0991) was 0.947 ± 0.026 mPa·s, the viscosity (318 K, 101.3 kPa, x2 = 0.2007) was 0.984 ± 0.027 mPa·s and the viscosity (318 K, 101.3 kPa, x2 = 0.3163) was 1.041 ± 0.029 mPa·s. For the same molecule, the viscosity (318 K, 101.3 kPa, x2 = 0.3988) was 1.089 ± 0.03 mPa·s, the viscosity (318 K, 101.3 kPa, x2 = 0.4955) was 1.156 ± 0.032 mPa·s and the viscosity (318 K, 101.3 kPa, x2 = 0.5977) was 1.217 ± 0.033 mPa·s. For the same molecule, the viscosity (318 K, 101.3 kPa, x2 = 0.6989) was 1.346 ± 0.036 mPa·s, the viscosity (318 K, 101.3 kPa, x2 = 0.7971) was 1.459 ± 0.039 mPa·s and the viscosity (318 K, 101.3 kPa, x2 = 0.8968) was 1.601 ± 0.043 mPa·s.
Work on `CCCCCCc1ccccc1` + CCCCCCCCCCCCCCCC yielded a viscosity (293.15 K, 102 kPa, x1 = 0.1344) of 3.12 ± 0.02 mPa·s, a viscosity (293.15 K, 102 kPa, x1 = 0.259) of 2.85 ± 0.03 mPa·s and a viscosity (293.15 K, 102 kPa, x1 = 0.3742) of 2.63 ± 0.02 mPa·s. It also gave a viscosity (293.15 K, 102 kPa, x1 = 0.4819) of 2.43 ± 0.02 mPa·s, a viscosity (293.15 K, 102 kPa, x1 = 0.5823) of 2.25 ± 0.02 mPa·s and a viscosity (293.15 K, 102 kPa, x1 = 0.6747) of 2.11 ± 0.02 mPa·s. For the same molecule, the viscosity (293.15 K, 102 kPa, x1 = 0.765) was 1.98 ± 0.01 mPa·s, the viscosity (293.15 K, 102 kPa, x1 = 0.848) was 1.86 ± 0.01 mPa·s and the viscosity (293.15 K, 102 kPa, x1 = 0.9262) was 1.77 ± 0.02 mPa·s. It also gave a viscosity (303.15 K, 102 kPa, x1 = 0.1344) of 2.49 ± 0.02 mPa·s, a viscosity (303.15 K, 102 kPa, x1 = 0.259) of 2.3 ± 0.02 mPa·s and a viscosity (303.15 K, 102 kPa, x1 = 0.3742) of 2.13 ± 0.02 mPa·s. The viscosity (303.15 K, 102 kPa, x1 = 0.4819) was 1.98 ± 0.01 mPa·s, the viscosity (303.15 K, 102 kPa, x1 = 0.5823) was 1.85 ± 0.01 mPa·s and the viscosity (303.15 K, 102 kPa, x1 = 0.6747) was 1.74 ± 0.01 mPa·s. The viscosity (303.15 K, 102 kPa, x1 = 0.765) was 1.64 ± 0.01 mPa·s, the viscosity (303.15 K, 102 kPa, x1 = 0.848) was 1.55 ± 0.01 mPa·s and the viscosity (303.15 K, 102 kPa, x1 = 0.9262) was 1.47 ± 0.01 mPa·s. The viscosity (313.15 K, 102 kPa, x1 = 0.1344) was 2.04 ± 0.02 mPa·s, the viscosity (313.15 K, 102 kPa, x1 = 0.259) was 1.9 ± 0.02 mPa·s and the viscosity (313.15 K, 102 kPa, x1 = 0.3742) was 1.76 ± 0.01 mPa·s. The viscosity (313.15 K, 102 kPa, x1 = 0.4819) was 1.65 ± 0.01 mPa·s, the viscosity (313.15 K, 102 kPa, x1 = 0.5823) was 1.55 ± 0.01 mPa·s and the viscosity (313.15 K, 102 kPa, x1 = 0.6747) was 1.46 ± 0.01 mPa·s. For the same molecule, the viscosity (313.15 K, 102 kPa, x1 = 0.765) was 1.38 ± 0.01 mPa·s, the viscosity (313.15 K, 102 kPa, x1 = 0.848) was 1.31 ± 0.01 mPa·s and the viscosity (313.15 K, 102 kPa, x1 = 0.9262) was 1.25 ± 0.01 mPa·s. For the same molecule, the viscosity (323.15 K, 102 kPa, x1 = 0.1344) was 1.7 ± 0.01 mPa·s, the viscosity (323.15 K, 102 kPa, x1 = 0.259) was 1.59 ± 0.01 mPa·s and the viscosity (323.15 K, 102 kPa, x1 = 0.3742) was 1.49 ± 0.01 mPa·s. It also gave a viscosity (323.15 K, 102 kPa, x1 = 0.4819) of 1.4 ± 0.01 mPa·s, a viscosity (323.15 K, 102 kPa, x1 = 0.5823) of 1.32 ± 0.01 mPa·s and a viscosity (323.15 K, 102 kPa, x1 = 0.6747) of 1.25 ± 0.01 mPa·s. The viscosity (323.15 K, 102 kPa, x1 = 0.765) was 1.18 ± 0.01 mPa·s, the viscosity (323.15 K, 102 kPa, x1 = 0.848) was 1.13 ± 0.01 mPa·s and the viscosity (323.15 K, 102 kPa, x1 = 0.9262) was 1.08 ± 0.01 mPa·s.
